Assay: Transdermal delivery of melatonin: plasma level of melatonin after applying composition to skin of a subject
Conditions: human, plasma, topical, 3 mg, Plasma level of melatonin; for concentration at 4 h / concentration at 4 hr: 4 hr after transdermal administration; for concentration at 8 h / concentration at 8 hr: 8 hr after transdermal administration; for concentration at 0 h / concentration at 0 hr: 0 hr after transdermal administration; for concentration at 1 h / concentration at 1 hr: 1 hr after transdermal administration; for concentration at 2 h / concentration at 2 hr: 2 hr after transdermal administration; for concentration at 0 hr / concentration at 1 hr / concentration at 2 hr / concentration at 4 hr / concentration at 8 hr: 0.30 mL applied to skin
[1] = Table 20 control, A− N/A, helper esters 0 mM, 2.0 mL applied
[2] = Tryptophan butyl ester hydrochloride 235.90 mM, 0.3 mL applied to skin
[3] = Tryptophan ethyl ester hydrochloride 260.47 mM, 0.3 mL applied to skin
[4] = Tryptophan isopropyl ester hydrochloride 247.52 mM, 0.3 mL applied to skin
[5] = Tyrosine isopropyl ester 269.50 mM
[6] = Tyrosine pentyl ester 243.25 mM
[7] = salt of tryptophan isopropyl ester, A− = AcO^−, 228.48 mM, 0.30 mL applied
[8] = salt of tryptophan isopropyl ester, A− = Benzoate ion, 189.98 mM, 0.30 mL applied
[9] = salt of tryptophan isopropyl ester, A− = Br^−, 220.92 mM, 0.30 mL applied
[10] = salt of tryptophan isopropyl ester, A− = Citrate ion, 159.67 mM, 0.30 mL applied

concentration at 4 h [1]: 0.1 ng/mL
concentration at 8 h [1]: 0.1 ng/mL
concentration at 0 h [2]: 0 µg/mL
concentration at 1 h [2]: 1.8 ng/mL
concentration at 2 h [2]: 1.9 ng/mL
concentration at 4 h [2]: 1.7 ng/mL
concentration at 8 h [2]: 1.7 ng/mL
concentration at 0 h [3]: 0 µg/mL
concentration at 1 h [3]: 2 ng/mL
concentration at 2 h [3]: 2.2 ng/mL
concentration at 4 h [3]: 1.9 ng/mL
concentration at 8 h [3]: 1.8 ng/mL
concentration at 2 h [4]: 2.8 ng/mL
concentration at 4 h [4]: 2.7 ng/mL
concentration at 8 h [4]: 2.5 ng/mL
concentration at 0 hr [5]: 0 µg/mL
concentration at 1 hr [5]: 2.1 ng/mL
concentration at 2 hr [5]: 2.9 ng/mL
concentration at 4 hr [5]: 2.7 ng/mL
concentration at 8 hr [5]: 2.8 ng/mL
concentration at 0 hr [6]: 0 µg/mL
concentration at 1 hr [6]: 1.8 ng/mL
concentration at 2 hr [6]: 2.1 ng/mL
concentration at 4 hr [6]: 2.2 ng/mL
concentration at 8 hr [6]: 2.1 ng/mL
concentration at 0 hr (Tyrosine propyl ester 269.5 mM): 0 µg/mL
concentration at 1 hr (Tyrosine propyl ester 269.5 mM): 2 ng/mL
concentration at 2 hr (Tyrosine propyl ester 269.5 mM): 2.5 ng/mL
concentration at 4 hr (Tyrosine propyl ester 269.5 mM): 2.6 ng/mL
concentration at 8 hr (Tyrosine propyl ester 269.5 mM): 2.6 ng/mL
concentration at 0 h [7]: 0 µg/mL
concentration at 1 h [7]: 1.9 ng/mL
concentration at 2 h [7]: 2.2 ng/mL
concentration at 4 h [7]: 2.1 ng/mL
concentration at 8 h [7]: 2 ng/mL
concentration at 0 h [8]: 0 µg/mL
concentration at 1 h [8]: 1.8 ng/mL
concentration at 2 h [8]: 1.8 ng/mL
concentration at 4 h [8]: 2 ng/mL
concentration at 8 h [8]: 1.7 ng/mL
concentration at 0 h [9]: 0 µg/mL
concentration at 1 h [9]: 2.4 ng/mL
concentration at 2 h [9]: 2.9 ng/mL
concentration at 4 h [9]: 2.6 ng/mL
concentration at 8 h [9]: 2.6 ng/mL
concentration at 0 h [10]: 0 µg/mL
concentration at 1 h [10]: 2.1 ng/mL
concentration at 2 h [10]: 2.3 ng/mL
concentration at 4 h [10]: 2.4 ng/mL
concentration at 8 h [10]: 2.1 ng/mL
concentration at 0 h (salt of tryptophan isopropyl ester, A− = Cl^−, 247.52 mM, 0.30 mL applied): 0 µg/mL
Structure (SMILES): COc1ccc2[nH]cc(CCNC(C)=O)c2c1 [Melatonin]
